Test results published in patent publication US9493460B2, “Diimide compounds” (UCL BUSINESS PLC, priority 2013, dated 2016).

What was measured:
[1] = test system: human telomeric G-quadruplex DNA (F21T); assay: FRET melting assay, human telomeric quadruplex; type: binding; conditions: FRET melting
Source text: The ability of the naphthalene diimide compounds to stabilize DNA sequences was investigated using a fluorescence resonance energy transfer (FRET) assay modified to be used as a high-throughput screen in a 96-well format. Several quadruplex sequences were studied (the human telomeric G-quadruplex DNA sequence 5′-FAM-d(GGG[TTAGGG]3)-TAMRA-3′ and the duplex sequence 5′-FAM-dTATAGCTATA-HEG-TATAGCTATA-TAMRA-3′ (HEG linker: [(—CH2—CH2—O—)6])), as well as two overlapping sequences from the HSP90 promoter region (HSP90a and HSP90b):
The labelled oligonucleotides have attached to them the donor fluorophore FAM: 6-carboxyfluorescein and the acceptor fluorophore TAMRA: 6-carboxytetramethylrhodamine. The FRET probe sequences were diluted from stock to the correct concentration (400 nM) in a 60 mM potassium cacodylate buffer (pH 7.4) and then annealed by heating to 85° C. for 10 min, followed by cooling to room temperature in the heating block. The compound was stored as a 10 mM stock solution in DMSO; final solutions (at 2×concentration) were prepared using 10 mM HCl in the initial 1:10 dilution, after which 60 mM potassium cacodylate buffer (pH 7.4) was used in all subsequent steps. The maximum HCl concentration in the reaction volume (at a ligand concentration of 20 μM) is thus 200 μM, well within the range of the buffer used. Relevant controls were also performed to check for interference with the assay. 96-Well plates (MJ Research, Waltham, Mass.) were prepared by aliquoting 50 μl of the annealed DNA into each well, followed by 50 μl of the compound solutions. Measurements were made on a DNA Engine Opticon (MJ Research) with excitation at 450-495 nm and detection at 515-545 nm. Fluorescence readings were taken at intervals of 0.5° C. in the range 30-100° C., with a constant temperature being maintained for 30 s prior to each reading to ensure a stable value. Final analysis of the data was carried out using a script written in the program Origin 7.0 (OriginLab Corp., Northampton, Mass.). The advanced curve-fitting function in Origin 7.0 was used for calculation of ΔTm values. All determinations were performed in triplicate or better. Esds in ΔTm are ±0.1° C.
The ability of compounds 3a-h to stabilize a human telomeric quadruplex was assessed by a high-throughput FRET (Fluorescence Resonance Energy Transfer) melting technique. […] None of the furan tetrahydrofuran, pyranose or acyclic ether compounds has any effect on quadruplex or duplex stability.
The T-loop sequence represents duplex DNA.

[2] = test system: panel of cancer cell lines; assay: SRB assay, panel of cancer cell lines and normal fibroblast line; type: cell-based, human; conditions: Homo sapiens, Fibroblast, 96 h exposure, read-out: IC50 values across the cell line panel
Procedure: (§1) Human cancer cell lines, MCF7 (breast), A549 (lung), Mia-PaCa2, PANC1 and HPAC (pancreatic), RCC4 and 786-0 renal, and the somatic human cell line WI-38 (lung fibroblast) were purchased from ATCC. Cell lines were maintained in appropriate medium supplemented with 10% foetal bovine serum (Invitrogen, UK), 2 mM L-glutamine (Invitrogen, Netherlands), and other components as specified by the suppliers. Cell lines were maintained at 37° C., 5% CO2 and routinely passaged. Drugs were dissolved in DMSO and filtered through 0.22 μm pore-size filter units before addition to cell line appropriate media. Cellular growth inhibition was measured using the sulforhodamine B (SRB) assay in 96 well plates as described previously.^1,2 Fifty percent inhibitory concentrations (IC50) were determined by taking the mean absorbance at 540 nm for each drug concentration expressed as a percentage of the absorbance of untreated control wells.
(§2) The anti-proliferative activity of the group of nine ND derivatives was assessed using the SRB assay following 96 h exposure to 2-fold serial dilutions of each compound (Table 2) in a panel of cancer cell lines together with a normal fibroblast line. […] In contrast the morpholine compounds all show sub-μM anti-proliferative activity in at least some of the cancer cell lines used and the two compounds 3d, 3h with n=3 —(CH2)n— linkers to the morpholine groups, show particularly potent activity in the Mia-PaCa2 and PANC1 pancreatic carcinoma and A549 lung adenocarcinoma cell lines (IC50 values of 10-20 nM).

786-O (renal) cells = assay: SRB growth inhibition assay, 96 hr exposure, 786-O; type: cell-based, human; conditions: versus other lines of the panel
Procedure: as §1, §2
(§3) Next a series of structural isomers were tested.

A549 (lung) cells = assay: SRB growth inhibition assay, 96 hr exposure, A549; type: cell-based, human; conditions: Homo sapiens, A549, 96 h exposure
Procedure: as §1, §2, §3

[3] = test system: MiaPaCa2 (pancreatic) cells; assay: SRB growth inhibition assay, MiaPaCa2; type: cell-based, human
Procedure: as §1, §2
Dose-response curves were used to guide the choice of compound concentration and time-points for the array experiments (FIG. 2a). […] To explore this response continuum the transcriptional signature of cells exposed for 24 h to 20 nM, 40 nM, 80 nM concentrations of 3d, or solvent alone as control, was analysed as described in Materials and Methods.
as §3

Panc1 (pancreatic) cells = assay: SRB growth inhibition assay, 96 hr exposure, Panc1; type: cell-based, human; conditions: Homo sapiens, PANC-1, 96 h exposure
Procedure: as §1, §2, §3

[4] = test system: 83 human genes involved in DNA damage signaling responses in Mia-PaCa2 cells; assay: qPCR array, DNA damage signaling response genes; type: cell-based; conditions: Mia-PaCa2 cells, data not shown
Procedure: Following compound exposure, cells were washed twice in PBS, harvested by trypsinisation, collected by centrifugation (300 g, 5 min, 4° C.) and re-suspended in RLT buffer (Qiagen). Samples were homogenised using QIAshredder spin columns and stored at −80° C. prior to RNA extraction. Three biological replicates were performed on separate days.
The expression of (i) 83 key human genes involved in telomere replication and maintenance, and (ii) 83 human genes involved in DNA damage signaling responses, was assessed using PCR arrays (SABiosciences). Total RNA was extracted from approximately 1×10^7 Mia-PaCa2 cells treated for 24 h with compound 3d, using the RNeasy kit (Qiagen) with on-column DNaseI treatment to remove residual genomic DNA. The quality of the harvested RNA was confirmed by nanodrop spectroscopy and by analysis with a Human RT^2 RNA QC PCR Array. First-strand cDNA synthesis was performed with the RT^2 first strand kit and qPCR was carried out using the RT^2 qPCR master mix (Qiagen) using 0.5 μg total RNA per array plate in a Stratagene MX-3000P instrument (Agilent, USA). Relative gene expression was determined by the ΔΔCT method using the web-based RT^2 Profiler™ PCR Array Data Analysis software (SABiosciences). Data were normalized to the geometric mean of five housekeeping genes (RPLP10, β-actin, B2M, GAPDH and HPRT1).
Various quadruplex-stabilising agents are known to induce pronounced DNA damage responses. We therefore next assessed the effect of 3d on the transcription of genes associated with DNA damage response and repair pathways. For these pathways the effect of a cytotoxic dosage of 3d (160 nM) on Mia-PaCa2 cells was also tested to assess the correlation between compound-induced DNA damage and cell killing. […] The latter two groups appeared to reflect a dynamic switch in the cellular response from low-level growth inhibition up to 40 nM of 3d to cytostatic then cytotoxic effects at 80 nM and 160 nM respectively.
Instead the response was dominated by genes with roles in growth arrest and more general stress responses.

telomerase = assay: TRAP-LIG cellular telomerase activity assay; type: cell-based, human; conditions: at the doses relevant to the IC50 values
Procedure: FIG. 1. Gel showing telomerase activity in MIA-Pa-Ca-2 cells treated with compound 3h after seven days of treatment. Lane 1; untreated cells, lanes 2-4; cells treated increasing concentrations of 3h. Telomerase activity was assessed using the TRAP-LIG assay as described in Materials and Methods. Compound concentrations are indicated. Neg; untreated cells, Pos; positive control. Neg: negative control with telomerase but no ligand.
Telomerase activity was determined using the TRAP-LIG assay, a modified telomere repeat amplification protocol that ensures that there is no carry-over of ligand into the second PCR step of the assay. Briefly, 1 μg of protein from untreated and treated cells were incubated with TS forward primer (0.1 μg of 5′-AAT CCG TCG AGC AGA GTT-3′) at 30° C. for 10 min to allow the initial elongation to take place. Elongated products were purified using the QIAquick nucleotide purification kit (Qiagen) according to the manufacturer's instructions. Eluted samples were freeze-dried and re-dissolved in PCR grade water. Re-dissolved PCR products were subjected to amplification in master mix containing ACX reverse primer (1 μM, 5′-GCG CGG [CTTACC]3 CTA ACC-3′), TS forward primer (0.1 μg), TRAP buffer, BSA (5 μg), 0.5 mM dNTPs, and 2U RedHot TAQ polymerase (ABgene, U.K.) for 35 cycles of 94° C. for 30 s, 61° C. for 1 min, and at 72° C. for 1 min. […]

Mia-PaCa2 cells = assay: Senescence β-galactosidase staining; type: cell-based, human; conditions: 7 days treatment
Procedure: FIG. 4. Micrographs showing the results of staining for evidence of cellular senescence in MiaPaCa2 cells using the β-galactosidase assay. Senescent cells are coloured blue in this procedure. Staining was performed after seven days treatments with (a) vehicle control, ×100 magnification, (b) 3.3 nM of compound 3d, ×200 magnification, (c) 6.6 nM of compound 3d, ×200 magnification, (d) 50 nM of compound 4, ×200 magnification, (e) plot of the percentage of senescent cells at the indicated concentrations of compounds 3d and 4, compared to the background senescence in this cell line (with vehicle control only). Cell counts were performed in triplicate and error bars represent estimated standard deviations.
Senescence detection and quantification experiments were carried out using the Senescence β-galactosidase staining kit (Cell Signalling Technology, MA, USA) according to the manufacturer's protocol. Briefly, 1×10^5 cells were seeded in 6-well plates in 2 ml of medium supplemented with the test compound and incubated for 24 h. Cells were washed (2 ml PBS), fixed (2% formaldehyde and 2% glutaraldehyde in PBS, 15 min, room temperature) and washed (2×2 ml PBS) before staining overnight. Senescent cells, detected by their blue pigmentation, were counted using a light microscope.
CDKN1A encodes the cyclin-dependent kinase p21WAF1 that induces replicative senescence, which is a well-studied consequence of telomerase inhibition and telomere maintenance disruption. […] Compounds 3b and 3d behaved in a similar manner to each other, with concentrations of 3-4 nM being sufficient to result in ˜50-60% of cells becoming senescent after this time-course.

SMILES: CN1CCN(CCCNc2cc3c4c(c(NCCCN5CCN(C)CC5)cc5c4c2C(=O)N(CC2CCOCC2)C5=O)C(=O)N(CC2CCOCC2)C3=O)CC1 [Compound 3c, 4,9-bis((3-(4-methylpiperazin-1-yl)propyl)amino)-2,7-bis((tetrahydro-2H-pyran-4-yl)methyl)benzo[lmn][3,8]phenanthroline-1,3,6,8(2H,7H)-tetraone]
- telomeric quadruplex stabilization (in words) [1]: low level of quadruplex binding
- IC50 [2]: 1000 to 8000 nM
- selectivity for the renal carcinoma cell line 786-0 (786-O (renal) cells): up to 10 fold

SMILES: CN1CCN(CCNc2cc3c4c(c(NCCN5CCN(C)CC5)cc5c4c2C(=O)N(CCCN2CCOCC2)C5=O)C(=O)N(CCCN2CCOCC2)C3=O)CC1 [Compound 3h, 4,9-bis((2-(4-methylpiperazin-1-yl)ethyl)amino)-2,7-bis(3-morpholinopropyl)benzo[lmn][3,8]phenanthroline-1,3,6,8(2H,7H)-tetraone]
- IC50 (A549 (lung) cells): 10 to 20 nM
- selectivity for Mia-PaCa2 compared to the normal fibroblast line WI-38 [3]: ~200 fold
- IC50 ([3]; Homo sapiens, MIA PaCa-2, SRB assay, 96 h exposure, read-out: IC50 Mia-PaCa2): 10 to 20 nM
- IC50 (Panc1 (pancreatic) cells): 10 to 20 nM
- induction of γ-H2AX [4]: do not appear to induce these particular changes
- telomerase activity inhibition (telomerase): not inhibitors of telomerase activity

SMILES: CN1CCN(CCCNc2cc3c4c(c(NCCCN5CCN(C)CC5)cc5c4c2C(=O)N(CCCN2CCN(C)CC2)C5=O)C(=O)N(CCCN2CCN(C)CC2)C3=O)CC1 [Compound 4, reference compound]
- induction of senescence (in words) (Mia-PaCa2 cells): strong induction of senescence
